Measurements published in patent publication US5217953A, “Vasoactive intestinal peptide antagonist” (The United States of America as represented by the …, priority 1990, dated 1993).
pIC50, pKd: −log10 of the molar value. Read-outs that look alike come from different tables or passages of the source. No end group written: not given here.

Tests used:
[1] = biological target: NSCLC VIP receptors (EPLC-65H membranes); assay: 125I-VIP binding to EPLC-65H membranes; conditions: for pIC50 / pKd: EPLC-65H membranes; for pIC50: 37° C., 60 min, read-out: IC50, inhibition of specific 125I-VIP binding
Procedure: The binding properties and the adenylate cyclase activity of the VIP receptor in NSCLC cell lines were investigated. NSCLC cells were cultured in RPMI-1640 containing 10% heat inactivated fetal bovine serum (Carney et al. (1985) Cancer Res. 45:2913-2923). When a monolayer formed, the adherent cells were washed with PBS and treated with trypsin/EDTA. The cells were pelleted and resuspended in serum supplemented medium and incubated at 37° C. in 5% CO2 /95% air. Routinely the cells were passed 1/1 weekly and experiments were conducted when the cells were in exponential growth phase.
Cells were rinsed twice in PBS. Membranes were prepared from EPLC-65H by lysing cells in 20 mM Tris.HCl (pH7.5), 1 mg/ml bacitracin, 1 mM PMSF and 0.25M sucrose. The cells were sonicated (15 sec, 120 W) and the membranes centrifuged at 500×g for 5 min in a Beckman J-21 B centrifuge at 4° C. The supernatant was saved and the pellet resuspended, homogenized and centrifuged. The supernatants were combined and centrifuged at 50,000×g for 30 min. The pellet, which contains plasma membranes, was resuspended and 50 μg of membrane protein and 2×10^5 cpm of ^125 I-VIP (2200 Ci/mmol) was added to each assay tube in a total volume of 100 μl; the buffer was 50 mM Tris.maleate, 2 mM MgCl2, 2% BSA, 500 KIU/ml trasylol and 0.2 mg/ml bacitracin. The samples were incubated at 37° C. for 60 min. To terminate the reaction, the incubation solution was centrifuged for 3 min in a microfuge B. The supernatant, which contained free peptide was removed and the top of the pellet rinsed three times with cold assay buffer. The pellet, which contained bound ^125 I-VIP was counted in a gamma counter.
^125 I was purchased from NEN. VIP was iodinated using the chloramine T procedure (Christophe et al. (1976) J. Biol. Chem. 251:4629-4634). ^125 I-VIP was purified using gel filtration techniques. VIP peptides were purchased from Peninsula Laboratories Inc. (San Carlos, Calif.).

[2] = system: castrated rats injected with testosterone; assay: Sexual behavior of castrated rats supplemented with testosterone; type: in vivo, rat
Procedure: Rats were castrated and injected with testosterone (4 μg/100 g BW) daily for 14 consecutive days. VIP (5 μg/animal) and the antagonists (30 μg/animal) were injected ip in a volume of 0.25 ml. Initial experiments were conducted using iv injections; however, as no significant differences were observed between iv and ip administration, ip injections were chosen in this model. When comparisons were made, the same group of rats was injected with one peptide and, after a period of at least 24 hr, with another peptide.

[3] = system: NCI-H1246; assay: Soft agar colony formation, NCI-H1246; type: cell-based; conditions: 1 μM, 2 weeks
Procedure: (§1) In order to test whether the VIP-neurotensin hybrid antagonist inhibited the growth of NSCLC, single viable cells (10^4) were plated in soft agar in the absence and presence of 1 μM VIP-neurotensin hybrid antagonist. After 2 weeks, colonies were stained with a vital dye and live colonies (>[…]) counted. The colony fraction (colonies in the presence of the VIP-neurotensin hybrid antagonist relative to the number of basal colonies) was calculated. Cell lines NCI-H522, NCI-H838, and NCI-H1246 had colony fractions of 0.45±0.16, 0.76±0.04, and 1.47±0.30, respectively. The VIP-neurotensin hybrid antagonist inhibited colony formation of cell lines NCI-H522 and NCI-H838 but not NCI-H1246.

[4] = system: NCI-H838; assay: Soft agar colony formation, NCI-H838; type: cell-based; conditions: 1 μM, 2 weeks
Procedure: as §1

[5] = system: VIP receptor; assay: [125I]VIP binding to rat cortical astrocyte (glial) cell cultures; conditions: 60 pM [125I]VIP, intact cells, 4° C.; for displacement of VIP binding: 10 μM
Procedure: Rat cortical astrocyte cultures were prepared by previously described methods (Evans et al. (1984) J. Neurochem. 43:131; Brenneman et al.(1987) J. Cell Biol. 104:1603). VIP binding studies were conducted on intact cells at 4° C., using PBS containing 0.1% BSA. The cultures (1 mg protein/35 mm culture dish) were incubated with either VIP or the antagonist (10 μM to 1 pM) for 30 min before the addition of 60 pM [^125 I]VIP at Tyr-22 (2000 Ci/mmol; Amersham Corp., Arlington Heights, Ill). Labeled VIP was incubated with the cultures for 1 hr; the medium was then removed, and cells were washed three times by the addition and rapid removal of 1 ml PBS (at 4° C.). The labeled cells were dissolved in 0.02N NaOH and transferred for radioactivity counting.

[6] = system: NCI-H522; assay: Soft agar colony formation, NCI-H522; type: cell-based; conditions: 1 μM, 2 weeks
Procedure: as §1

[7] = system: castrated rats; assay: Sexual behavior of castrated rats without testosterone supplementation; type: in vivo, rat
Excerpt: (§2) Male rats were sexually experienced Wistar-derived animals (250-300 g), approximately 3 months old from the Department of Hormone Research, Weizmann Institute of Science. All rats were kept in a 12-hr light, 12-hr dark cycle. Experiments were always conducted within the dark period 2-6 hrs after the onset of darkness. Before testing, each male was put in a separate cage for a period of at least 1 hr. A sexually receptive female (as tested by vaginal smearing) was introduced to each male. Latencies were defined as the intervals between copulatory behaviors (mounts and intromissions). These were recorded over a 15-min period. The latencies to the first copulatory event are reported separately.
After castration, the animals lose sexual activity in a time-dependent manner (Bradshaw et al. (1981) Endocrinology 109:1047; Reach et al. (1946) J. Exp. Zool. 101:91), and eventually all sexual activities are blocked. […] VIP (5 μg/animal) and the antagonists (30 μg/animal) were injected ip in a volume of 0.25 ml. Initial experiments were conducted using iv injections; however, as no significant differences were observed between iv and ip administration, ip injections were chosen in this model. When comparisons were made, the same group of rats was injected with one peptide and, after a period of at least 24 hr, with another peptide. The other parameters used for the experiment are described above.
The second paradigm was the castrated rat model.

[8] = system: pituitary-transplanted male rats; assay: Sexual behavior of pituitary-grafted gonadally intact male rats; type: in vivo, rat; conditions: 5 ug iv
Excerpt: as §2
This procedure results in hyperprolactinemia and a decrease in sexual potency in male rats. Pituitary-transplanted male rats (8 weeks after transplantation) were injected with 5 μg VIP, iv. As a control, saline iv was injected at identical volumes. The peptide was injected into the tail vein, restraining the animal by hand (two people were involved in the actual injection). The animals were subjected to the behavioral tests immediately after the injection. At least 24 hr elapsed between two consecutive tests per animal (i.e. between saline injection and VIP injection). The doses of VIP were deduced from those used to induce penile erection in men (Ottesen et al. (1984) Br. Med. J. 288:9). The statistical analysis involved a single test measurement per animal.

[9] = system: cAMP levels in 5M2 cells; assay: cAMP radioimmunoassay in 5M2 cells; type: cell-based; conditions: 5 min exposure
Procedure: The cAMP assays were performed by radioimmunoassay. 5M2 cells were exposed to stimuli in SIT medium (RPMI-1640 containing 10^-8 M Se2 O3, 1 μg/ml insulin and 3×10^-8 M transferrin) containing […] isobutyl-methyl-xanthine. After 5 min, the reaction was quenched by adding an equal volume of ice cold ethanol. The samples were vortexed and an aliquot of supernatant removed and added to 100 μl of 50 mM sodium acetate (pH 6.2). The sample (25 μl) was acetylated at 4° C. by adding 10 μl of triethylamine followed by 5 μl of acetic anhydride. Then 200 μl of goat anti-cyclic AMP antibody was added followed by 8,000 cpm of ^125 I-2-succinyl (tyrosine methyl ester)-cyclic AMP (NEN). After incubation for 16 hr at 4° C., 1 ml of charcoal suspension (2 mg/ml Norit-A charcoal in 100 mM phosphate buffer, pH 6.3, which contains 0.25% BSA) was added, the tubes vortexed and centrifuged at 1,500×g for 10 min. An aliquot (1 ml) of supernatant, which contains radiolabeled antigen-antibody complex, was counted in a gamma counter.

[10] = system: NSCLC VIP receptors (EPLC-65H membranes); assay: 125I-VIP binding to EPLC-65H membranes
[11] = coinjected ip with VIP at 3-fold molar excess

## GHRH: unlabeled peptide tested for specificity of 125I-VIP binding
[1]
  pIC50: 7.70

## LMYPTYLK [octamere]
[2]; coinjected with VIP (5 ug), 20-fold molar excess, 30 ug/animal ip
  effect on VIP-stimulated sexual behavior: specifically inhibited VIP effects on sexual behavior

## Lys-Pro-Arg-Arg-Pro-Tyr-Thr-Asp-Asn-Tyr-Thr-Arg-Leu-Arg-Lys-Gln-Met-Ala-Val-Lys-Lys-Tyr-Leu-Asn-Ser-Ile-Leu-Asn-NH2 (KPRRPYTDNYTRLRKQMAVKKYLNSILN-NH2) [VIP-neurotensin hybrid antagonist]
[2]; [11]
  effect on VIP-stimulated sexual activity: complete blockade of VIP activity
  sexual activity values lower than the control values: 2 fold
[2]; coinjected ip with VIP at 3-fold molar excess, 40±9 with VIP alone
  latency to the first copulatory event: 92 ± 20 s
[2]; injected by itself, 10 animals, from 1.66±0.12
  rate of copulatory events: 1.16±0.11
[2]; injected by itself, 10 animals, from 36.9±2.4
  intromission interval: 53.4 ± 8.6 s
[3]
  colony fraction (colonies with antagonist relative to basal colonies): 1.47±0.30
[4]
  colony fraction (colonies with antagonist relative to basal colonies): 0.76±0.04
[5]; read-out: IC50, first binding site of biphasic displacement curve
  pIC50: 10.30
[5]; read-out: IC50, second binding site of biphasic displacement curve
  pIC50: 7.00
[5]
  displacement of VIP binding: 85-90%
[1]
  pIC50: 8.00
[6]
  colony fraction (colonies with antagonist relative to basal colonies): 0.45±0.16

## VIP: a 28 amino acid peptide with an amidated C-terminal; widely distributed peptide hormone
[2]; 5 ug ip
  decrease in intervals (intromission latencies) between copulatory events: 2 fold
[2]; 5 ug ip, nine animals, 74±10 without VIP
  latency to the first intromission: 40 ± 9 s
[2]; 5 ug ip, vs saline injection
  increase in the rate of intromissions before ejaculation or end of test period: ~2 fold
[2]; after VIP treatment, 15 animals
  animals that ejaculated: 80-100%
[7]; 14 days after castration, 5 ug ip
  drop in the intervals between copulatory events (including latency to first intromission): 2- to 4 fold
[7]; 14 days after castration, 5 ug ip, six animals, 90±16 before
  intromission latency: 35 ± 2.4 s
[7]; model without testosterone supplementation, after VIP treatment
  animals that ejaculated: 1 of 6
[8]
  mean latency to the first mount and intromission: 23 ± 4 s
[8]; 15-min test, vs saline
  mean interval between copulatory events: significant reduction
  rate of copulation: significant increase
[8]; vs control
  decrease in the latency to the first intromission: 2- to 3 fold
[8]; 10-20% before treatment
  rats that ejaculated: all of the rats ejaculated
[5]
  displacement of VIP binding: 75%
[1]
  pIC50: 8.00
[9]
  ED50, increase of cAMP levels: 10 nM

## ^125 I-VIP: VIP iodinated using the chloramine T procedure; radiolabeled VIP
[10]
  time to half maximal specific binding (association): 20 min
  time to maximal specific binding (association): 60 min
[1]; read-out: Kd, high affinity site (Scatchard)
  pKd: 9.15
[1]; read-out: Kd, low affinity site (Scatchard)
  pKd: 7.70
[1]; after addition of 1 μM unlabeled VIP
  time at which half of the specific binding was reversed (dissociation): 40 min

## helodermin
[1]
  pIC50: 7.00

## peptide histidine isoleucine amide (HADGVFTSDYSRLLGQISAKKYLESLI-NH2; UniProt P01283 81-107, looked up) [PHI, cosynthesized with VIP on the same protein precursor]
[2]; PHI by itself or VIP plus PHI equimolar
  average latency to intromissions and rate of copulatory events, difference from VIP by itself: 2 fold
[2]; in the presence of PHI, 5 ug iv
  animals that ejaculated: one of nine
[2]; peptide by itself (5 ug iv) or with VIP
  effect on rat sexual behavior: inhibited rat sexual behavior and VIP-induced rat sexual behavior
[1]
  pIC50: 7.10

## secretin
[1]
  pIC50: 6.52
